The test system of assay [1] is NIH3T3. The assay can be described thus: Cytotoxicity against mouse NIH/3T3 cells after 24 hrs by MTT assay. It is filed as cell-based. Particulars: NIH3T3, 24 h. (In general: Tetrazolium assays rely on reduction of a dye to a coloured formazan, in cell work by metabolically active cells.)
The test system of assay [2] is Candida albicans. The assay can be described thus: Antimicrobial activity against Candida albicans ATCC 22019 after 18 to 24 hrs by microbroth dilution method. The assay is classed as functional. (Broth dilution looks for growth in wells or tubes with falling amounts of substance.)
The test system of assay [3] is Fusarium culmorum. In words: Antimicrobial activity against wild type Fusarium culmorum after 48 to 72 hrs by microbroth dilution method. The assay is classed as functional.
Assay [4] concerns Fusarium verticillioides. In words: Antimicrobial activity against Fusarium moniliforme NRRL 1866 after 48 to 72 hrs by microbroth dilution method. The assay is classed as functional.
Assay [5] deals with Fusarium solani. The assay can be described thus: Antimicrobial activity against Fusarium solani NRRL 13414 after 48 to 72 hrs by microbroth dilution method. The assay is classed as functional.
In assay [6] the test system is Aspergillus ochraceus. In words: Antimicrobial activity against Aspergillus ochraceus NRRL 3174 after 48 to 72 hrs by microbroth dilution method. It is filed as functional.
The subject of assay [7] is Trichoderma harzianum. In words: Antimicrobial activity against Trichoderma harzianum NRRL 20565 after 48 to 72 hrs by microbroth dilution method. The assay is classed as functional.
In assay [8] the test system is Penicillium chrysogenum. In words: Antimicrobial activity against Penicillium chrysogenum NRRL 1951 after 48 to 72 hrs by microbroth dilution method. It is filed as functional.
The subject of assay [9] is Aspergillus parasiticus. The assay can be described thus: Antimicrobial activity against Aspergillus parasiticus NRRL 465 after 48 to 72 hrs by microbroth dilution method. It is filed as functional.
The test system of assay [10] is Bacillus subtilis. The assay can be described thus: Antimicrobial activity against Bacillus subtilis NRS-744 after 18 to 24 hrs by microbroth dilution method. The assay is classed as functional.
Assay [11] relates to Micrococcus luteus. In words: Antimicrobial activity against Micrococcus luteus NRLL B-4375 after 18 to 24 hrs by microbroth dilution method. It is filed as functional.
Assay [12] concerns Pseudomonas aeruginosa. In words: Antimicrobial activity against Pseudomonas aeruginosa […] after 18 to 24 hrs by microbroth dilution method. It is filed as functional.
The test system of assay [13] is Escherichia coli. The assay can be described thus: Antimicrobial activity against Escherichia coli ATCC 25922 after 18 to 24 hrs by microbroth dilution method. The assay is classed as functional.
In assay [14] the test system is Listeria monocytogenes. The assay can be described thus: Antimicrobial activity against Listeria monocytogenes ATCC 7644 after 18 to 24 hrs by microbroth dilution method. It is filed as functional.
The subject of assay [15] is Staphylococcus aureus. In words: Antimicrobial activity against Staphylococcus aureus NRRL B-767 after 18 to 24 hrs by microbroth dilution method. It is filed as functional.

Converted amounts (≈) assume the structure as drawn.

For orientation: IC50 means the concentration at which inhibition is half-maximal. A high value points to a need for much substance. As usually defined, the MIC is the smallest concentration in the dilution series that meets the test's criterion for growth inhibition. `O=C(CSc1ncccn1)N/N=c1/scc(-c2ccc([N+](=O)[O-])cc2)n1-c1ccccc1`: half-maximal inhibition in [1] (IC50) was put at 193 µg/mL (≈ 416 µM). Moreover, the MIC in [2], in assay [3], in assay [4], in assay [5], in assay [6] and in assay [7] was 250 µg/mL (≈ 538 µM) throughout. In addition, the MIC in [8], in assay [9], in assay [10], in assay [11], in assay [12] and in assay [13] was 250 µg/mL (≈ 538 µM) each time. Also, the MIC in assay [14] and in assay [15] was 250 µg/mL (≈ 538 µM) each time.
`COc1ccc(-c2cs/c(=N/NC(=O)CSc3nnnn3-c3ccccc3)n2-c2ccccc2)cc1`: the IC50 in assay [1] was 11.7 µg/mL (≈ 22.7 µM). Besides, the MIC in [2] stood at 250 µg/mL (≈ 485 µM); in assay [3], 125 µg/mL (≈ 242 µM); in assay [4] it was 250 µg/mL (≈ 485 µM); in assay [5] it was 250 µg/mL (≈ 485 µM); in assay [6] it was 250 µg/mL (≈ 485 µM); in assay [7], 125 µg/mL (≈ 242 µM). The MIC is 250 µg/mL (≈ 485 µM) in assay [8]; 250 µg/mL (≈ 485 µM) in assay [9]; 500 µg/mL (≈ 970 µM) in assay [10]; 125 µg/mL (≈ 242 µM) in [11]; 250 µg/mL (≈ 485 µM) in assay [12]; 250 µg/mL (≈ 485 µM) in assay [13]. Further, the MIC in assay [14] and in [15] was 250 µg/mL (≈ 485 µM) throughout.
In assay [1], `Cn1cnnc1SCC(=O)N/N=c1/scc(-c2ccc(Br)cc2)n1-c1ccccc1` came in with a concentration for half-maximal inhibition (IC50) of 58.3 µg/mL (≈ 116 µM). Besides, the MIC was found to be 250 µg/mL (≈ 499 µM) in assay [2]; 250 µg/mL (≈ 499 µM) in [3]; 250 µg/mL (≈ 499 µM) in assay [4]; 250 µg/mL (≈ 499 µM) in [5]; 250 µg/mL (≈ 499 µM) in assay [6]; 125 µg/mL (≈ 249 µM) in [7]. For the same compound, the minimum inhibitory concentration (MIC) in [8], in assay [9], in assay [10], in assay [11], in [12] and in [13] was 250 µg/mL (≈ 499 µM) in each case. Further, the MIC in assay [14] and in assay [15] was 250 µg/mL (≈ 499 µM) throughout.
As for `CN[C@@H]1[C@H](O[C@H]2[C@H](O[C@H]3[C@H](O)[C@@H](O)[C@H](N=C(N)N)[C@@H](O)[C@@H]3N=C(N)N)O[C@@H](C)[C@]2(O)C=O)O[C@@H](CO)[C@H](O)[C@H]1O` [STREPTOMYCIN], the MIC in assay [10] is 15.6 µg/mL (≈ 26.9 µM); in [11] it was 15.6 µg/mL (≈ 26.9 µM); in [12], 125 µg/mL (≈ 215 µM); in [13], 31.2 µg/mL (≈ 53.7 µM); in assay [14] it was 7.81 µg/mL (≈ 13.4 µM); in assay [15] it was 31.2 µg/mL (≈ 53.7 µM).
Regarding `Cn1nnnc1SCC(=O)N/N=c1/scc(-c2ccc(F)cc2)n1-c1ccccc1`, 113 µg/mL (≈ 257 µM) corresponded to half-maximal inhibition in assay [1] (IC50). Besides, the minimum inhibitory concentration (MIC) in [2], in assay [3], in assay [4], in assay [5], in [6] and in assay [7] was 250 µg/mL (≈ 566 µM) throughout. In addition, the MIC in assay [8] was 250 µg/mL (≈ 566 µM); in [9] it was 250 µg/mL (≈ 566 µM); in assay [10] it was 250 µg/mL (≈ 566 µM); in [11], 250 µg/mL (≈ 566 µM); in assay [12] it was 250 µg/mL (≈ 566 µM); in assay [13] it was 125 µg/mL (≈ 283 µM). Besides, the MIC in assay [14] and in [15] was 250 µg/mL (≈ 566 µM) each time.
`COc1ccc(-c2cs/c(=N/NC(=O)CSc3nncn3C)n2-c2ccccc2)cc1` came in with an IC50 in [1] of 167 µg/mL (≈ 368 µM). Further, the MIC in assay [2], in assay [3], in assay [4], in assay [5], in assay [6] and in assay [7] was 250 µg/mL (≈ 552 µM) each time. The MIC in assay [8], in assay [9], in [10], in assay [11], in [12] and in assay [13] was 250 µg/mL (≈ 552 µM) each time. The MIC in assay [14] and in assay [15] was 250 µg/mL (≈ 552 µM) throughout.
In turn, `Cn1cnnc1SCC(=O)N/N=c1/scc(-c2ccc(Cl)cc2)n1-c1ccccc1` came in with an IC50 in assay [1] of 51.7 µg/mL (≈ 113 µM). For the same compound, the MIC in assay [2] came out at 250 µg/mL (≈ 547 µM); in assay [3], 250 µg/mL (≈ 547 µM); in assay [4], 250 µg/mL (≈ 547 µM); in [5], 250 µg/mL (≈ 547 µM); in [6], 250 µg/mL (≈ 547 µM); in assay [7], 125 µg/mL (≈ 274 µM). The minimum inhibitory concentration (MIC) in assay [8] was found to be 250 µg/mL (≈ 547 µM); in assay [9], 250 µg/mL (≈ 547 µM); in assay [10] it was 125 µg/mL (≈ 274 µM); in assay [11] it was 125 µg/mL (≈ 274 µM); in assay [12], 250 µg/mL (≈ 547 µM); in [13], 125 µg/mL (≈ 274 µM). The minimum inhibitory concentration (MIC) in assay [14] worked out at 250 µg/mL (≈ 547 µM); in [15] it was 125 µg/mL (≈ 274 µM).

The record behind these values is ChEMBL document CHEMBL3124777, “Synthesis and biological evaluation of thiazoline derivatives as new antimicrobial and anticancer agents” (Eur J Med Chem, 2014).
